According to ChEMBL document CHEMBL1140268, “Novel and potent cyclic cyanamide-based cathepsin K inhibitors” (Bioorg Med Chem Lett, 2005):

Columns and labels:
Pro-cathepsin H = target: T1, Pro-cathepsin H (Homo sapiens, UniProt P09668); assay: Inhibitory concentration against human cathepsin H using 50 uM L-Arg-beta-naphthalamide
T1 sequence (P09668 whole entry): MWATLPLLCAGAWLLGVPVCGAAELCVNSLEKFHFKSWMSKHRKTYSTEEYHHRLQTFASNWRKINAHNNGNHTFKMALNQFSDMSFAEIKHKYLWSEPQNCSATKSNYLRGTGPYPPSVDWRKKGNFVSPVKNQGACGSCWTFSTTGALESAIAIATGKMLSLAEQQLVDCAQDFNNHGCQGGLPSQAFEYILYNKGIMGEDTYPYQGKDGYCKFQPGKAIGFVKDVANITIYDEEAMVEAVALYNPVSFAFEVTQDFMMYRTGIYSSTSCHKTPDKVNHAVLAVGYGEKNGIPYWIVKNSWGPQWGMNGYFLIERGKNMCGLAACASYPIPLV

Cathepsin B = Cathepsin B (Homo sapiens, UniProt P07858); assay: Inhibitory concentration against human cathepsin B using 10 uM Cbz-Phe-Arg-AMC
Cathepsin K = target: T2, Cathepsin K (Homo sapiens, UniProt P43235); assay: Inhibitory concentration against human cathepsin K using 10 uM Cbz-Phe-Arg-AMC
T2 sequence (P43235 whole entry): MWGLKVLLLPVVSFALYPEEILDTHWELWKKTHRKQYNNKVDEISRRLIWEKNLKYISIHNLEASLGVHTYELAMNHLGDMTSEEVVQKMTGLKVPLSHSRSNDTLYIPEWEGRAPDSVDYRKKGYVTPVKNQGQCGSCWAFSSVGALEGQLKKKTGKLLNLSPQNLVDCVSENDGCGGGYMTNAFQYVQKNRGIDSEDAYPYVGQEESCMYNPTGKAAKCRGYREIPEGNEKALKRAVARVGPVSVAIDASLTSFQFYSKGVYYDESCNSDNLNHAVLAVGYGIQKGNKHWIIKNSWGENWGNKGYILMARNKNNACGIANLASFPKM

Procathepsin L = Procathepsin L (Homo sapiens, UniProt P07711); assay: Inhibitory concentration against human cathepsin L using 5 uM Cbz-Phe-Arg-AMC
Chain of Procathepsin L (P07711 whole entry): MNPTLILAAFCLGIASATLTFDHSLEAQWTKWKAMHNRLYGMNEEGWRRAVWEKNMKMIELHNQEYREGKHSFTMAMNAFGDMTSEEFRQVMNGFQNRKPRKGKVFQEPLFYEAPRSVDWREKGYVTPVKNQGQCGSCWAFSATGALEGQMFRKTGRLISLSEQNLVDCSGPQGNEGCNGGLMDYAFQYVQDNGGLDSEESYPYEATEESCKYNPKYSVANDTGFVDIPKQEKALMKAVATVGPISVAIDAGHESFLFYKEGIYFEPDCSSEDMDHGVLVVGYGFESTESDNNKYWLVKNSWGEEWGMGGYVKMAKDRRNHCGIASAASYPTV

IC50 (Pro-cathepsin H) [nM] | IC50 (Cathepsin B) [nM] | IC50 (Cathepsin K) [nM] | IC50 (Procathepsin L) [nM] | Compound
8300 | 680 | 12 | 81 | C[C@@H](CC1CCCCC1)OC(=O)N[C@H]1CCN(C#N)C1
– | – | 60 | – | CC(C)(C)OC(=O)[C@@H]1CCCN1C#N
– | – | 380 | – | CC(C)(C)OC(=O)N1CCCN1C#N
– | – | 8.9 | – | CC[C@@H](CC1CCCCC1)OC(=O)NC1CCN(C#N)C1 (stereo not given in full)
– | – | 430 | – | COC(=O)[C@@H]1CN(C#N)C[C@H]1c1ccc(OC)c(OC2CCCC2)c1
– | – | 8100 | – | CC(C)(C)NC(=O)[C@H]1CCCN1C#N
– | – | 200 | – | CC(C)(C)OC(=O)N[C@@H]1CCN(C#N)C1
– | – | 300 | – | CC(C)(C)OC(=O)[C@H]1CCCN1C#N
– | – | 81 | – | CC(C)(C)OC(=O)N[C@H]1CCN(C#N)C1
– | – | > 13000 | – | CN(C(=O)[C@H]1CCCN1C#N)C(C)(C)C
40 | 2.4 | 0.048 | 0.71 | C[C@@H](CC1CCCCC1)OC(=O)C1CCN1C#N (stereo not given in full)
– | – | > 13000 | – | CC(C)(C)OC(=O)[C@@H]1CCCCN1C#N
– | – | 200 | – | CC[C@@H](CC1CCCCC1)OC(=O)N1CCC(NC#N)C1 (stereo not given in full)
580 | 310 | 1.8 | 130 | C[C@@H](CC1CCCCC1)OC(=O)C1CCCN1C#N (stereo not given in full)
– | – | 51 | – | CCCC[C@H](C=O)NC(=O)OC(C)(C)C

Compound | IC50 (Pro-cathepsin H) [nM] | IC50 (Cathepsin B) [nM] | IC50 (Cathepsin K) [nM] | IC50 (Procathepsin L) [nM]
N#CN1CCCC1 [CYANO-PYRROLIDINE] | – | – | 2100 | –
